We go through 12 compounds from ChEMBL document CHEMBL3217417, “PRIMACINS, N-cinnamoyl-primaquine conjugates, with improved liver-stage antimalarial activity” (Medchemcomm, 2012).

Data set [1] in a line: Cytotoxicity against human HuH7 cells assessed as cell viability by alamarblue assay. In kind it is cell-based. To be noted: huh-7.
Another data set deals with Plasmodium falciparum. As to the kind of experiment: Antiplasmodial activity against erythrocyte stage of Plasmodium falciparum W2 assessed as growth inhibition after 48 hrs by flow cytometry. In kind it is functional, organism-based. To be noted: W2, 48 h. Background: A flow cytometer gives signals particle by particle.
The subject of data set [2] is Plasmodium berghei. Nature of the data set: Antiplasmodial activity against liver stage of Plasmodium berghei sporozoites expressing firefly luciferase infected in human Huh7 cells assessed as inhibition of parasite development treated 1 hr prior to infection followed by compound replenisment at 24 hrs post-infection measured 48 hrs after infection by bioluminescence analysis. In kind it is functional, organism-based. To be noted: Huh-7, Liver.

In data set [3] the test system is Plasmodium berghei. As to the kind of experiment: Ratio of primaquine IC50 to compound IC50 against liver stage of Plasmodium berghei sporozoites expressing firefly luciferase infected in human Huh7 cells. In kind it is functional, Huh-7.

pIC50: −log10 of the molar value.

As to `COc1cc(NC(C)CCCNC(=O)/C=C/c2ccccc2)c2ncccc2c1` (centres undefined), in data set [1], the Activity entry is “Non-toxic”. Also, the pIC50 in the data set with Plasmodium falciparum is no more than 5.00; in the data set on Plasmodium berghei [2], 5.70. Further, the “Ratio IC50” value in the data set on Plasmodium berghei [3] was greater than 2.
For the compound `COc1cc(NC(C)CCCNC(=O)/C=C/c2ccc(F)cc2)c2ncccc2c1` (centres undefined), the Activity result in data set [1] is “Non-toxic”. Also, the negative-log IC50 (pIC50) in the data set with Plasmodium falciparum was no more than 5.00; in the data set on Plasmodium berghei [2], 5.63. Besides, the “Ratio IC50” value in the data set on Plasmodium berghei [3] was greater than 2.
Take `COc1cc(NC(C)CCCNC(=O)/C=C/c2ccc(C(C)C)cc2)c2ncccc2c1` (centres undefined): the Activity entry in data set [1] is on record as “Non-toxic”. For the same compound, the results for the pIC50 with Plasmodium falciparum and with Plasmodium berghei [2] were 5.32 and 5.81, respectively. For the same compound, in the data set with Plasmodium berghei [3], the “Ratio IC50” value was greater than 2.
In the case of `COc1cc(NC(C)CCCNC(=O)/C=C/c2cccc([N+](=O)[O-])c2)c2ncccc2c1` (centres undefined), in data set [1], the Activity entry was “Non-toxic”. Moreover, the pIC50 with Plasmodium falciparum is no more than 5.00; in the data set on Plasmodium berghei [2], 5.67. In addition, the “Ratio IC50” value in the data set on Plasmodium berghei [3] is on record as greater than 2.
As to `COc1cc(NC(C)CCCNC(=O)/C=C/c2ccc(Cl)cc2)c2ncccc2c1` (centres undefined), the Activity entry in data set [1] is “Non-toxic”. Also, the pIC50 was no more than 5.00 in the data set on Plasmodium falciparum and 5.62 in the data set on Plasmodium berghei [2]. Also, in the data set on Plasmodium berghei [3], the “Ratio IC50” value was greater than 2.
The corresponding values for `COc1cc(NC(C)CCCNC(=O)/C=C/c2ccc(Br)cc2)c2ncccc2c1` (centres undefined) are “Non-toxic”, no more than 5.00, 5.86 and greater than 2.
Turning to `COc1cc(NC(C)CCCNC(=O)/C=C/c2cccc(F)c2)c2ncccc2c1` (centres undefined), in data set [1], the Activity entry is on record as “Non-toxic”. In addition, the pIC50 is no more than 5.00 in the data set with Plasmodium falciparum and 5.79 in the data set with Plasmodium berghei [2]. Also, the “Ratio IC50” value in the data set on Plasmodium berghei [3] is listed as greater than 2.
For the compound `COc1cc(NC(C)CCCNC(=O)/C=C/c2ccc(C)cc2)c2ncccc2c1` (centres undefined), the Activity entry in data set [1] was “Non-toxic”. The pIC50 with Plasmodium falciparum is no more than 5.00; in the data set with Plasmodium berghei [2], 5.67. Moreover, the “Ratio IC50” value with Plasmodium berghei [3] is greater than 2.
As to `C[C@@H]1CC[C@H]2[C@@H](C)C(=O)O[C@@H]3O[C@@]4(C)CC[C@@H]1[C@]32OO4` [ARTEMISININ], in the data set on Plasmodium falciparum, the pIC50 was 8.25.
For the compound `COc1ccc(/C=C/C(=O)NCCCC(C)Nc2cc(OC)cc3cccnc23)cc1` (centres undefined), the Activity result in data set [1] is given as “Non-toxic”. The negative logarithm of the IC50 (pIC50) in the data set with Plasmodium falciparum was no more than 5.00. Further, the “Ratio IC50” value in the data set with Plasmodium berghei [3] is reported as greater than 2.
With `COc1cc(NC(C)CCCNC(=O)/C=C/c2ccccc2[N+](=O)[O-])c2ncccc2c1` (centres undefined), the Activity entry in data set [1] was “Non-toxic”. For the same compound, the negative logarithm of the IC50 (pIC50) in the data set with Plasmodium falciparum was no more than 5.00; with Plasmodium berghei [2], 5.63. For the same compound, the “Ratio IC50” value in the data set with Plasmodium berghei [3] was greater than 2.
For `COc1cc(NC(C)CCCNC(=O)/C=C/c2ccc([N+](=O)[O-])cc2)c2ncccc2c1` (centres undefined), in that order: “Non-toxic”, no more than 5.00, 5.65 and greater than 2.

The pIC50 is −log10 of the IC50, conventionally taken in molar units.
